This passage reports IC50 results from patent US20200317642A1, “AMINE-SUBSTITUTED HETEROCYCLIC COMPOUNDS AS EHMT2 INHIBITORS AND DERIVATIVES THEREOF” (Epizyme, Inc., priority 2017, published 2020).

The subject of experiment [1] is H3K9me2 in MDA-MB-231 cells. Kind of experiment: MDA-MB-231 H3K9me2 in-cell western assay (EHMT2 ICW). The conditions noted are these: Homo sapiens, Table 3A, read-out: ICW (IC50 μM). It is filed as cell-based. The source says: MDA-MB-231 cell line was purchased from ATCC (Manassas, Va., USA). RPMI/Glutamax medium, Penicillin-Streptomycin, Heat Inactivated Fetal Bovine Serum, and D-PBS were purchased from Life Technologies (Grand Island, N.Y., USA). Odyssey blocking buffer, 800 CW goat anti-mouse IgG (H+L) antibody, and Licor Odyssey Infrared Scanner were purchased from Licor Biosciences, Lincoln, Nebr., USA. H3K9me2 mouse monoclonal antibody (Cat #1220) was purchased from Abcam (Cambridge, Mass., USA). 16% Paraformaldehyde was purchased from Electron Microscopy Sciences, Hatfield, Pa., USA). MDA-MB-231 cells were maintained in complete growth medium (RPMI supplemented with 10% v/v heat inactivated fetal bovine serum) and cultured at 37° C. under 5% C02. UNC0638 was purchased from Sigma-Aldrich (St. Louis, Mo., USA).
General Procedure for MDA-MB-231 HEK9me2 in-Cell Western Assay.
Compound (100 nL) was added directly to 384-well cell plate. MDA-MB-231 cells (ATCC) were seeded in assay medium (RPMI/Glutamax supplemented with 10% v/v heat inactivated fetal bovine serum and 1% Penicillin/Streptomycin, Life Technologies) at a concentration of 3,000 cells per well to a Poly-D-Lysine coated 384-well cell culture plate with 50 μL per well. Plates were incubated at 37° C., 5% CO2 for 48 hours (BD Biosciences 356697). […] After the incubation, 50 μL per well of 8% paraformaldehyde (Electron Microscopy Sciences) in PBS was added to the plates and incubated at room temperature for 20 minutes. Plates were transferred to a Biotek 406 plate washer and washed 2 times with 100 μL per well of wash buffer (1×PBS containing 0.3% Triton X-100 (v/v)). Next, 60 μL per well of Odyssey blocking buffer (Licor Biosciences) was added to each plate and incubated for 1 hour at room temperature. Blocking buffer was removed and 20 μL of monoclonal primary antibody α-H3K9me2 (Abcam) diluted 1:800 in Odyssey buffer with 0.1% Tween 20 (v/v) were added and plates were incubated overnight (16 hours) at 4° C. Plates were washed 5 times with 100 μL per well of wash buffer. Next 20 μL per well of secondary antibody was added (1:500 800 CW donkey anti-mouse IgG (H+L) antibody (Licor Biosciences), 1:1000 DRAQ5 (Cell Signaling Technology) in Odyssey buffer with 0.1% Tween 20 (v/v)) and incubated for 1 hour at room temperature. The plates were washed 5 times with 100 μL per well wash buffer then 2 times with 100 μL per well of water. Plates were allowed to dry at room temperature then imaged on a Licor Odyssey Infrared Scanner (Licor Biosciences) which measured integrated intensity at 700 nm and 800 nm wavelengths. Both 700 and 800 channels were scanned.
First, the ratio for each well was determined by:
Each plate included fourteen control wells of DMSO only treatment (Minimum Inhibition) as well as fourteen control wells (background wells) for maximum inhibition treated with control compound UNC0638 (Background wells).
The average of the ratio values for each well was calculated and used to determine the percent inhibition for each test well in the plate. Control compound was serially diluted three-fold in DMSO for a total of 10 test concentrations beginning at 1 μM. Percent inhibition was calculated as: […]
IC50 curves were generated using triplicate wells per concentration of compound. The IC50 is the concentration of compound at which measured methylation is inhibited by 50% as interpolated from the dose response curves. IC50 values were calculated using a non-linear regression (variable slope-four parameter fit model) with by the following formula:
where Top is fixed at 100% and Bottom is fixed to 0%, [I]=concentration of inhibitor, IC50=half maximal inhibitory concentration and n=Hill Slope.

For experiment [2], the target named is T1, human EHMT2 913-1193 (Homo sapiens, UniProt Q96KQ7).
T1 construct: recombinant purified human EHMT2 913-1193, Viva; purchased Viva
T1 sequence (Q96KQ7 913-1193): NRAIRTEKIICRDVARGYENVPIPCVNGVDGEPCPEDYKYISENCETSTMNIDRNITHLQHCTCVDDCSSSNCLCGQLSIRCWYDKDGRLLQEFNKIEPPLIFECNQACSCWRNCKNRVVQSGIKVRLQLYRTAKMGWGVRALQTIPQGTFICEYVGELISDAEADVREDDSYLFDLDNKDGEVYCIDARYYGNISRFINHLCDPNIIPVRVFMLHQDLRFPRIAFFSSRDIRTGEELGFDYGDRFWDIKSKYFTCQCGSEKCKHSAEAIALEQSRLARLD
Kind of experiment: EHMT2 enzyme assay on histone peptide substrate. The format is biochemical. The conditions noted are these: Table 3A; histone H3 1-15 peptide, balanced conditions; read-out: EHMT2 (IC50 μM). The source says: Recombinant purified human EHMT2 913-1193 ([…]) synthesized by Viva was used for all experiments. Biotinylated histone peptides were synthesized by Biopeptide and HPLC-purified to >95% purity. Streptavidin Flashplates and seals were purchased from PerkinElmer and 384 Well V-bottom Polypropylene Plates were from Greiner. ^3H-labeled S-adenosylmethionine (^3H-SAM) was obtained from American Radiolabeled Chemicals with a specific activity of 80 Ci/mmol. Unlabeled SAM and S-adenosylhomocysteine (SAH) were obtained from American Radiolabeled Chemicals and Sigma-Aldrich respectively. Flashplates were washed in a Biotek ELx-405 with 0.1% Tween. 384-well Flashplates and 96-well filter binding plates were read on a TopCount microplate reader (PerkinElmer). Compound serial dilutions were performed on a Freedom EVO (Tecan) and spotted into assay plates using a Thermo Scientific Matrix PlateMate (Thermo Scientific). Reagent cocktails were added by Multidrop Combi (Thermo Scientific).
10-point curves of test compounds were made on a Freedom EVO (Tecan) using serial 3-fold dilutions in DMSO, beginning at 2.5 mM (final top concentration of compound was […] and the DMSO was 2%). A 1 μL aliquot of the inhibitor dilution series was spotted in a polypropylene 384-well V-bottom plate (Greiner) using a Thermo Scientific Matrix PlateMate (Thermo Scientific). The 100% inhibition control consisted of 1 mM final concentration of the product inhibitor S-adenosylhomocysteine (SAH, Sigma-Aldrich). Compounds were incubated for 30 minutes with 40 μL per well of 0.031 nM EHMT2 (recombinant purified human EHMT2 913-1193, Viva) in 1× assay buffer (20 mM Bicine [pH 7.5], 0.002% Tween 20, 0.005% Bovine Skin Gelatin and 1 mM TCEP). 10 μL per well of substrate mix comprising assay buffer, ^3H-SAM (^3H-labeled S-adenosylmethionine, American Radiolabeled Chemicals, specific activity of 80 Ci/mmol), unlabeled SAM (American Radiolabeled Chemicals), and peptide representing histone H3 residues 1-15 containing C-terminal biotin (appended to a C-terminal amide-capped lysine, synthesized by Biopeptide and HPLC-purified to greater than 95% purity) were added to initiate the reaction (both substrates were present in the final reaction mixture at their respective Km values, an assay format referred to as “balanced conditions”). Reactions were incubated for 60 minutes at room temperature and quenched with 10 μL per well of 400 μM unlabeled SAM, then transferred to a 384-well streptavidin Flashplate (PerkinElmer) and washed in a Biotek ELx-405 well washer with 0.1% Tween after 60 minutes. 384-well Flashplates were read on a TopCount microplate reader (PerkinElmer).

By IC50 is commonly meant the concentration at which inhibition is half-maximal.

Each structure is given as a SMILES string.

With `CNC1=Nc2cc(-c3cc4ccncc4[nH]3)c(Cl)cc2C12CCC2` [Compound A44], the IC50 in experiment [1] fell in the range of 0.1 to 1 µM; in experiment [2], 0.01 to 0.1 µM.

Take `CNC1=Nc2cc(-c3[nH]c4cnccc4c3C)c(Cl)cc2C12CCC2` [Compound A45]: the IC50 is 0.01 to 0.1 µM in experiment [1] and under 0.01 µM in experiment [2].

For the compound `CNCc1cn(-c2cc3c(cc2OC)C2(CCC2)C(NC)=N3)cn1` [Compound A47], the IC50 is 0.1 to 1 µM in experiment [1] and 0.01 to 0.1 µM in experiment [2].

Regarding `CNCc1cn(-c2cc3c(cc2Cl)C2(CCC2)C(NC)=N3)cn1` [Compound A48], the 50% inhibitory concentration (IC50) in experiment [1] and in experiment [2] was over 1 µM in each case.

With `CNC1=Nc2cc(-n3cc4c(n3)CCCNC4)c(Cl)cc2C12CCC2` [Compound A51], the IC50 in experiment [1] and in experiment [2] was under 0.01 µM throughout.

Turning to `CNC1=Nc2cc(-n3cc([C@H]4CCCN4C)nn3)c(Cl)cc2C12CCC2` [Compound A52R], the IC50 in experiment [1] and in experiment [2] was 0.01 to 0.1 µM in each case.

For the compound `CNC1=Nc2cc(-n3cc([C@H]4CCCN4C)nn3)c(OC)cc2C12CCC2` [Compound A59R], the half-inhibitory concentration (IC50) in experiment [1] was 0.1 to 1 µM; in experiment [2], under 0.01 µM.

For the compound `CNc1cc(C)nc(Nc2ccc(OC)c(-n3ncc4c3CCCNC4)c2F)n1` [Compound A62], the figures for the IC50 in experiment [1] and in experiment [2] were 0.01 to 0.1 µM and under 0.01 µM, respectively.

`CNc1cc(C)nc(Nc2ccc(OC)c(-n3ncc4c3CCCNC4=O)c2F)n1` [Compound A63]: in experiment [2], the half-maximal inhibitory concentration (IC50) was over 1 µM.

`CNc1cc(C)nc(Nc2ccc(OC)c(-n3cc4c(n3)CCCN(C)C4)c2F)n1` [Compound A66]: the IC50 in experiment [2] was under 0.01 µM.

Take `CNC1=Nc2cc(-n3cc4c(n3)CCCN(C)C4)c(Cl)cc2C12CCC2` [Compound A68]: the half-maximal inhibitory concentration (IC50) in experiment [1] and in experiment [2] was under 0.01 µM in each case.

In the case of `CCN1CCCc2nn(-c3cc4c(cc3Cl)C3(CCC3)C(NC)=N4)cc2C1` [Compound A69], the IC50 is 0.01 to 0.1 µM in experiment [1] and under 0.01 µM in experiment [2].

In the case of `CNC1=Nc2cc(-n3cc4c(n3)CCCNC4)c(OC)cc2C12CCC2` [Compound A70], the half-maximal inhibitory concentration (IC50) in experiment [1] and in experiment [2] was under 0.01 µM throughout.
